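In this assay, cells in 96-well plates receive the compound at five concentrations for 48 hours. Endpoints are linearly interpolated between the surrounding concentrations. At the GI50, growth is halved.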 The source made the active and inactive calls. Cut-off read from the data, not from the text of the source: active = GI50 up to about 1.1 µM and inactive = higher.
Experiments:
Experiment in all cases: growth of human tumour cells (NCI), 48 h
786-0 = test system: 786-0
A549 = test system: A549
CCRF-CEM = test system: CCRF-CEM
EKVX = test system: EKVX
HL-60 = test system: HL-60
HOP-62 = test system: HOP-62
K562 = test system: K562
M14 = test system: M14
NCI-H226 = test system: NCI-H226
OVCAR-3 = test system: OVCAR-3
OVCAR-4 = test system: OVCAR-4
OVCAR-5 = test system: OVCAR-5
RXF 393 = test system: RXF 393
SF-268 = test system: SF-268
SK-MEL-28 = test system: SK-MEL-28
SK-MEL-2 = test system: SK-MEL-2
SW-620 = test system: SW-620
TK-10 = test system: TK-10
NCI-H460 = test system: NCI-H460

Measured: GI50

C1OC1C1CO1 (configuration not stated)
inactive: 786-0 24.2 µM | A549 30.1 µM | CCRF-CEM 3.34 µM | EKVX > 100 µM | HL-60 3.14 µM | HOP-62 17.3 µM | K562 80.2 µM | M14 > 100 µM | NCI-H226 > 100 µM | OVCAR-3 39.7 µM | OVCAR-4 > 100 µM | OVCAR-5 > 100 µM | RXF 393 48.4 µM | SF-268 6.43 µM | SK-MEL-28 51.8 µM | SK-MEL-2 > 100 µM | SW-620 86.3 µM | TK-10 > 100 µM

CCCCNC(=S)Nn1c(-c2ccccc2)nc2ccccc2c1=O
inactive: 786-0 > 100 µM | A549 > 100 µM | CCRF-CEM 38.3 µM | HL-60 25.7 µM | HOP-62 > 100 µM | K562 67.1 µM | M14 > 100 µM | NCI-H226 > 100 µM | NCI-H460 > 100 µM | OVCAR-4 > 100 µM | OVCAR-5 > 100 µM | RXF 393 24 µM | SF-268 > 100 µM | SK-MEL-28 9.68 µM | SK-MEL-2 > 100 µM | SW-620 > 100 µM | TK-10 > 100 µM

CSC1=C(c2ccc(Cl)cc2)SC(N2CCCCC2)N1c1ccc([N+](=O)[O-])cc1 (configuration not stated)
inactive: 786-0 31.6 µM | A549 29.2 µM | CCRF-CEM 38.4 µM | EKVX 40.6 µM | HL-60 25.5 µM | HOP-62 20 µM | K562 33 µM | M14 18.5 µM | NCI-H226 76.9 µM | NCI-H460 23.6 µM | OVCAR-3 21.8 µM | OVCAR-4 23.3 µM | OVCAR-5 28 µM | RXF 393 > 100 µM | SF-268 41.3 µM | SK-MEL-28 38.8 µM | SK-MEL-2 20.5 µM | SW-620 38.7 µM | TK-10 42.2 µM

CCc1cccc(C(C)C)c1NC(=O)C(=O)C(Cc1nc2ccccc2nc1O)C(=O)OC (configuration not stated)
inactive: 786-0 > 100 µM | A549 > 100 µM | CCRF-CEM 60.8 µM | EKVX 5.19 µM | HL-60 > 100 µM | HOP-62 > 100 µM | K562 > 100 µM | M14 > 100 µM | NCI-H226 > 100 µM | NCI-H460 > 100 µM | OVCAR-3 > 100 µM | OVCAR-4 > 100 µM | OVCAR-5 > 100 µM | RXF 393 > 100 µM | SF-268 67.9 µM | SK-MEL-28 > 100 µM | SK-MEL-2 > 100 µM | TK-10 > 100 µM

— ChEMBL document CHEMBL1201862, “PubChem BioAssay data set” (2004)
